Data reported in patent US20020048549A1, “Radioactive transition metal nitride heterocomplex” (priority 1996, published 2002).

Experiment: Biodistribution of 99mTcN-DESI in SD rats (Group A alone, Group B with unlabeled desipramine)
Format: in vivo
Conditions: for Blood % dose/g / Brain % dose/g / Heart % dose/g / Kidney % dose/g / Liver % dose/g / Lung % dose/g / Muscle % dose/g / Spleen % dose/g / Submaxillary glands % dose/g / Adrenal glands % dose/g: Group B (with 1.0 mg/kg unlabeled desipramine)
Protocol: The biodistribution of the ^99mTcN-DESI in SD rats obtained in Example 15 was measured.
Before being injected into the rats, the ^99mTcN-DESI was separated and purified from the excess and free bidentate ligand by HPLC. The active ingredient of the complex was further purified by passage through a Sep-Pak cartridge activated with 5 ml of 95% ethanol. The final active ingredient was recovered with 95% ethanol and diluted with physiological saline containing 10% Tween 80.
The rats were divided into two groups, group A and group B. Into each rat in group A was injected 20 μCi of the ^99mTcN-DESI. Into each rat in group B were injected 20 μCi of the ^99mTcN-DESI and 1.0 mg/kg of unlabeled desipramine at the same time.
SD rats weighing about 250 g were put under intraperitoneal anesthesia with a mixture of xylazine (18 mg/kg) and ketamine (15 mg/kg) and given an injection in the jugular vein. Then, the organs (brain, heart, lung, liver, spleen, kidney, muscle, adrenal, and submaxillary gland) were excised from the rats at different intervals of time, washed and then weighed. In addition, blood samples were collected and then weighed. The data on the biodistribution are expressed as the mean±significant difference of the percentage of radioactivity level per gram of the organ weight based on the dose of radioactivity, (% dose/g). The measurement was carried out using groups of 3 rats each.

## COCCC[P+]1(CCCOC)CCN(CCOC)CC[P+](CCCOC)(CCCOC)[99Tc-2]12(#[N])[NH]C(C(=O)N(C)CCCN1c3ccccc3CCc3ccccc31)C[S]2 (stereo not drawn) [^99mTcN-DESI]
2 min
  Blood % dose/g: 0.467 ± 0.011 % dose/g
  Brain % dose/g: 0.032 ± 0.004 % dose/g
  Heart % dose/g: 0.793 ± 0.037 % dose/g
  Kidney % dose/g: 5.492 ± 0.602 % dose/g
  Liver % dose/g: 5.149 ± 0.787 % dose/g
  Lung % dose/g: 0.488 ± 0.042 % dose/g
  Muscle % dose/g: 0.103 ± 0.002 % dose/g
  Spleen % dose/g: 1.841 ± 0.197 % dose/g
  Submaxillary glands % dose/g: 1.878 ± 0.09 % dose/g
5 min
  Adrenal glands % dose/g: 4.480 ± 0.991 % dose/g
  Blood % dose/g: 0.277 ± 0.028 % dose/g
  Brain % dose/g: 0.029 ± 0.003 % dose/g
  Heart % dose/g: 0.819 ± 0.052 % dose/g
  Kidney % dose/g: 5.899 ± 1.397 % dose/g
  Liver % dose/g: 6.420 ± 0.378 % dose/g
  Lung % dose/g: 0.353 ± 0.028 % dose/g
  Muscle % dose/g: 0.101 ± 0.014 % dose/g
  Spleen % dose/g: 2.032 ± 0.197 % dose/g
  Submaxillary glands % dose/g: 1.786 ± 0.201 % dose/g
10 min
  Adrenal glands % dose/g: 4.349 ± 0.164 % dose/g
  Blood % dose/g: 0.170 ± 0.020 % dose/g
  Brain % dose/g: 0.018 ± 0.001 % dose/g
  Heart % dose/g: 0.814 ± 0.023 % dose/g
  Kidney % dose/g: 5.192 ± 0.036 % dose/g
  Liver % dose/g: 4.732 ± 0.057 % dose/g
  Lung % dose/g: 0.348 ± 0.003 % dose/g
  Muscle % dose/g: 0.086 ± 0.007 % dose/g
  Spleen % dose/g: 1.559 ± 0.074 % dose/g
  Submaxillary glands % dose/g: 1.669 ± 0.126 % dose/g
30 min
  Adrenal glands % dose/g: 6.120 ± 2.224 % dose/g
  Blood % dose/g: 0.169 ± 0.028 % dose/g
  Brain % dose/g: 0.018 ± 0.003 % dose/g
  Heart % dose/g: 0.832 ± 0.170 % dose/g
  Kidney % dose/g: 7.883 ± 1.689 % dose/g
  Liver % dose/g: 4.957 ± 0.168 % dose/g
  Lung % dose/g: 0.27 ± 0.117 % dose/g
  Muscle % dose/g: 0.091 ± 0.011 % dose/g
  Spleen % dose/g: 1.339 ± 0.380 % dose/g
  Submaxillary glands % dose/g: 1.042 ± 0.123 % dose/g
60 min
  Adrenal glands % dose/g: 4.321 ± 0.712 % dose/g
  Blood % dose/g: 0.074 ± 0.016 % dose/g
  Brain % dose/g: 0.016 ± 0.002 % dose/g
  Heart % dose/g: 0.693 ± 0.057 % dose/g
  Kidney % dose/g: 5.176 ± 0.584 % dose/g
  Liver % dose/g: 2.505 ± 0.113 % dose/g
  Lung % dose/g: 0.253 ± 0.014 % dose/g
  Muscle % dose/g: 0.110 ± 0.024 % dose/g
  Spleen % dose/g: 1.403 ± 0.209 % dose/g
  Submaxillary glands % dose/g: 1.596 ± 0.138 % dose/g
120 min
  Adrenal glands % dose/g: 4.588 ± 0.985 % dose/g
  Blood % dose/g: 0.050 ± 0.007 % dose/g
  Brain % dose/g: 0.004 ± 0.000 % dose/g
  Heart % dose/g: 0.745 ± 0.063 % dose/g
  Kidney % dose/g: 5.737 ± 0.093 % dose/g
  Liver % dose/g: 1.159 ± 0.09 % dose/g
  Lung % dose/g: 0.206 ± 0.048 % dose/g
  Muscle % dose/g: 0.343 ± 0.443 % dose/g
  Spleen % dose/g: 1.865 ± 0.313 % dose/g
  Submaxillary glands % dose/g: 1.641 ± 0.280 % dose/g
150 min
  Adrenal glands % dose/g: 4.09 ± 0.294 % dose/g
  Blood % dose/g: 0.050 ± 0.014 % dose/g
  Brain % dose/g: 0.001 ± 0.000 % dose/g
  Heart % dose/g: 0.815 ± 0.070 % dose/g
  Kidney % dose/g: 5.646 ± 1.192 % dose/g
  Liver % dose/g: 1.253 ± 0.006 % dose/g
  Lung % dose/g: 0.163 ± 0.036 % dose/g
  Muscle % dose/g: 0.096 ± 0.007 % dose/g
  Spleen % dose/g: 1.637 ± 0.147 % dose/g
  Submaxillary glands % dose/g: 1.983 ± 0.339 % dose/g
SD rats
  accumulation in adrenal: very large amount
  accumulation in heart: considerable amount
  elimination through liver and kidney: very rapidly eliminated
